Experimental data from patent US20250122253A1, “REGULATING MICROTUBULE DYNAMICS AS A THERAPEUTIC TARGET FOR NERVE REPAIR” (City University of Hong Kong, priority 2023, published 2025).

Columns and labels:
Type in all cases: in vivo, mice
acetylated tubulin = assay: Western blot of acetylated tubulin/total tubulin in sciatic nerve segments 0-6 mm distal to the crush site; details: regenerating axons of sciatic nerves 3 days post-injury
Experimental: Ipsilateral L4/5 DRG neurons were harvested at various time points following sciatic nerve injury as indicated. Sciatic nerves were harvested 3 days after crush injury and segmented into 0-6 mm distal to the crush site. Each protein sample was pooled from 3 mice. DRG neurons and segmented sciatic nerves were mechanically dissociated with protein lysis buffer, and subjected to measurement of protein concentration using protein BCA assay (Pierce). Protein lysate (30 μg) was separated on 4-12% NuPAGE Tris-Glycine precast gel (Invitrogen). Protein was then transferred onto a PVDF membrane (Bio-Rad) and blocked with 5% non-fat milk (Bio-Rad) in TBS-T. The membrane was incubated with anti-FMN2 (1:500; ProteinTech), anti-phosphorylated HDAC5 (1:500, ThermoFisher), anti-HDAC5 (1:500, Novus Biologicals), anti-acetylated tubulin (1:10,000; Sigma-Aldrich), anti-NeuN (1:500; Millipore), anti-SOX10 (1:500; Abcam), anti-IBA-1 (1:1,000; Wako), anti-GFP (1:1,000; Cell Signaling), and anti-GAPDH antibodies (1:2,000; ProteinTech) as loading controls. The membrane was incubated with secondary antibody conjugated with horseradish peroxidase (1:2,000; Thermo-Fisher). Signals were detected using West Femto Maximum Sensitivity Substrate Kit (Thermo Scientific). […] Band intensities were measured using Image Lab software (Bio-Rad). […]

[1] = system: regenerating sensory axons of the injured sciatic nerve; assay: Sciatic nerve pinch test after sciatic nerve crush injury; details: 3 days post-injury
Experimental: Sciatic nerve crush or transection injury was performed in anesthetized adult male C57BL/6 or Fmn2^−/− mice (8-12 weeks old) as previously described. Briefly, the left sciatic nerve was exposed at mid-thigh level. For crush injury, the exposed nerve was crushed with smooth forceps (Dumont #5/45 Forceps, Fine Science Tools) at the sciatic notch for 15 seconds. For sciatic nerve transection, an epineural suture was first made at the level of external rotator muscle, just distal to the sciatic notch. The exposed nerve was then transected using a pair of ophthalmic microscissors just distal to the suture. After injury, the overlying muscle and skin were sutured using a 5-0 suture (Ethilon), and the mice were allowed to recover on a heated pad, and returned to their home cages after recovery. The surgeon was blinded to the genotypes and treatments.
For in vivo gene silencing of Fmn2 and/or Hdac5 in DRGs, AAV2/9-Fmn2-shRNA and AAV2/9-Hdac5-shRNA at a titer of 5×10^12 vg/mL (OBIO Technology) were injected into the sciatic nerve directly through a glass micropipette using a microinjector (Harvard Apparatus) two weeks before sciatic nerve crush injury. The mice were then subjected to sciatic nerve crush injury and sciatic nerve pinch test (FIG. 4) and animal behavioural assessment (FIG. 15). The expression of shRNAs was under the control of the U6 promoter, and the expression of the reporter gene eGFP was under the control of the CAG promoter. AAV2/9-scr-shRNA (Packgene) was used as a negative control (see FIG. 22 for the shRNA sequences). On a separate batch of animals, the knockdown efficiency in DRGs was assessed by Western blot analysis in AAV2-Fmn2-shRNA and AAV2-Hdac5-shRNA mice two weeks after the AAV injection (FIGS. S8B and S9). […]
Sciatic nerve pinch test was performed in the ipsilateral side 3 days after sciatic nerve crush injury. […] The distance (in mm) representing the length of axonal regrowth was recorded from the crushed site to the most distal point of sciatic nerve whereas initial withdrawal reflex was observed after pinching. […]

[2] = system: sensory function of injured hindlimb; assay: Pinprick assay (sensory function recovery) after sciatic nerve crush
Experimental: Adult male Fmn2^−/− mice (8-12 weeks old) and their age-matched WT littermates, or adult male C57BL/6 mice (for whole-body X-ray, AAV2/9-Fmn2-shRNA and metaxalone experiments) were trained and habituated one week before the sciatic nerve crush injury. After three independent training sessions (30 minutes per session with two days break), baseline values were taken, and sciatic nerve crush injury were performed one day after the baseline recordings. Function recovery was monitored for 30 days. On day 3 after the sciatic nerve crush, we first perform pinprick assay and followed by motor function assays every other day in a sequential manner (toe spreading, grip strength, and sciatic functional index) with 30 mins apart from each test. Animal behavioural tests were done blinded to the surgery and genotypes.
Mice were placed singly in small wire-mesh cages for 30-minutes habituation, an insect pin (Fine Science Tools) were applied to the lateral plantar surface of the ipsilateral hindlimb from toe to heel. The lateral planar surface was divided into 5 different areas, from the most distal toe (score=5) to the heel (score=1). The mouse was scored for that area if a brisk withdrawal response of hind paw was observed. The mouse was scored 0 if no withdrawal responses were observed after insect pin was applied to all 5 areas. Saphenous innervated area of the same hindlimb was tested as a positive control if there was no positive response from these five areas. Two rounds of pinprick assay were performed (with a 30-minute time interval) in each mouse to confirm the score.
To examine the therapeutic potential of metaxalone, adult mice received daily intraperitoneal injection of metaxalone at 10 mg/kg immediately after injury for 21 consecutive days (i.e., metaxalone treatment) or delaying daily intraperitoneal injection of metaxalone at 10 mg/kg to 24 hours post-injury for 20 consecutive days (i.e., delayed metaxalone treatment), and all metaxalone treatments ended on day 21 post-injury. The mice were then subjected to sensory and motor function recovery tests and weekly EMG recordings for 28 days post-injury.

Cc1cc(C)cc(OCC2CNC(=O)O2)c1 (stereo not shown) [metaxalone]
tubulin acetylation (acetylated tubulin): reduction of tubulin acetylation | distal sensory axonal regrowth (length) ([1]; 0.25 μg/μl to the site of injury immediately after crush, twice per day, 3 consecutive days): 4.82±0.32 mm | axonal regrowth (length), delayed treatment ([1]; treatment delayed by 24 hours, 0.25 μg/μl to site of injury for 2 consecutive days): 4.50±0.25 mm | initial response to pinprick stimuli (reaching score 1), delayed treatment ([2]; 10 mg/kg intraperitoneally daily, delayed to 24 hours post-injury, 20 days): 10 day post-injury | full sensory pinprick response regained earlier than vehicle controls, delayed treatment ([2]; 10 mg/kg intraperitoneally delayed to 24 hours post-injury): 2 days | full sensory pinprick response regained earlier than vehicle controls ([2]; 10 mg/kg intraperitoneally immediately after PNI): 4 days | initial response to pinprick stimuli (reaching score 1) ([2]; 10 mg/kg intraperitoneally once a day immediately after PNI for 21 days): 9 day post-injury
